Data: patent US6846824B2, “Bicyclic compounds and their use in medicine; process for their preparation and pharmaceutical compositions containing them” (Dr. Reddy's Laboratories Ltd., priority 1997, dated 2005)

What was measured:
Type in all cases: in vivo
[1] = test system: C57BL/KsJ-db/db mice; assay: Blood sugar and triglycerides lowering activity in db/db mice (genetic model)
Text: Mutation in colonies of laboratory animals and different sensitivities to dietary regimens have made the development of animal models with non-insulin dependent diabetes and hyperlipidemia associated with obesity and insulin resistance possible. Genetic models such as db/db and ob/ob (Diabetes, (1982) 31(1): 1-6) mice and zucker fa/fa rats have been developed by the various laboratories for understanding the pathophysiology of disease and testing the efficacy of new antidiabetic compounds (Diabetes, (1983) 32: 830-838; Annu. Rep. Sankyo Res. Lab. (1994). 46 : 1-57). The homozygous animals, C57 BL/KsJ-db/db mice developed by Jackson Laboratory, US, are obese, hyperglycemic, hyperinsulinemic and insulin resistant (J. Clin. Invest., (1990) 85: 962-967), whereas heterozygous are lean and normoglycemic. In db/db model, mouse progressively develops insulinopenia with age, a feature commonly observed in late stages of human type II diabetes when blood sugar levels are insufficiently controlled. The state of pancreas and its course vary according to the models. Since this model resembles that of type II diabetes mellitus, the compounds of the present invention were tested for blood sugar and triglycerides lowering activities.
Male C57BL/KsJ-db/db mice of 8 to 14 weeks age, having body weight range of 35 to 60 grams, bred at Dr. Reddy's Research Foundation (DRF)animal house, were used in the experiment. The mice were provided with standard feed (National Institute of Nutrition (NIN), Hyderabad, India) and acidified water, ad libitum. The animals having more than 350 mg/dl blood sugar were used for testing. The number of animals in each group was 4.
Test compounds were suspended on 0.25% carboxymethyl cellulose and administered to test group at a dose of 0.1 mg to 30 mg/kg through oral gavage daily for 6 days. The control group received vehicle (dose 10 ml/kg). On 6th day the blood samples were collected one hour after administration of test compounds/vehicle for assessing the biological activity.
The random blood sugar and triglyceride levels were measured by collecting blood (100 μl) through orbital sinus, using heparinised capillary in tubes containing EDTA which was centrifuged to obtain plasma. The plasma glucose and triglyceride levels were measured spectrometrically, by glucose oxidase and glycerol-3-PO4 oxidase/peroxidase enzyme (Dr. Reddy's Lab. Diagnostic Division Kits, Hyderabad, India) methods respectively.
The blood sugar and triglycerides lowering activities of the test compound was calculated according to the formula.
(§1) Formulae for Calculation: • 1. Percent reduction in Blood sugar/triglycerides/total cholesterol/body weight were calculated according to the formula: • Percent reduction [formula] OC=Zero day control group value OT=Zero day treated group value TC=Test day control group value TT=Test day treated group value

[2] = test system: Swiss albino mice and Guinea pigs; assay: Plasma triglyceride and total cholesterol lowering activity in Swiss albino mice and Guinea pigs; conditions: species (Swiss albino mice or Guinea pigs) not given
Experimental: Male Swiss albino mice (SAM) and male Guinea pigs were obtained from NIN and housed in DRF animal house. All these animals were maintained under 12 hour light and dark cycle at 25±1° C. Animals were given standard laboratory chow (NIN, Hyderabad, India) and water, ad libitum. SAM of 20-25 g body weight range and Guinea pigs of 500-700 g body weight range were used (Oliver, P., Plancke, M. O., Marzin, D., Clavey, V., Sauzieres, J and Fruchart, J. C. Effects of fenofibrate, gemfibrozil and nicotinic acid on plasma lipoprotein levels in normal and hyperlipidemic mice. Atherosclerosis. 1988. 70: 107-114).
The test compounds were administered orally to Swiss albino mice at 0.3 to 30 mg/kg/day dose for 6 days. Control mice were treated with vehicle (0.25% Carboxymethylcellulose; dose 10 ml/kg). The test compounds were administered orally to Guinea pigs at 0.3 to 30 mg/kg/day dose for 6 days. Control animals were treated with vehicle (0.25% Carboxymethylcellulose; dose 5 ml/kg).
The blood samples were collected in fed state 1 hour after drug administration on 0 and 6 day of treatment. The blood was collected from the retro-orbital sinus through heparinised capillary in EDTA containing tubes. After centrifugation, plasma sample was separated for triglyceride and total cholesterol (Wieland, 0. Methods of Enzymatic analysis. Bergermeyer, H. O., Ed., 1963. 211-214; Trinder, P. Ann. Clin. Biochem. 1969. 6: 24-27). Measurement of plasma triglyceride, total cholesterol and HDL were done using commercial kits (Dr. Reddy's Diagnostic Division, Hyderabad, India).
as §1

[3] = test system: cholesterol fed Syrian Hamsters; assay: Body weight reducing effect in cholesterol fed hamsters; conditions: 10 mg/kg/day orally for 15 days
Experimental: Male Syrian Hamsters were procured from NIN, Hyderabad, India. Animals were housed at DRF animal house under 12 hour light and dark cycle at 25±1° C. with free access to food and water. Animals were maintained with 1% cholesterol containing standard laboratory chow (NIN) from the day of treatment.
The test compounds were administered orally at 1 to 30 mg/kg/day dose for 15 days. Control group animals were treated with vehicle (Mill Q water, dose 10 ml/kg/day). Body weights were measured on every 3rd day.
as §1

[4] = test system: hypercholesterolemic Sprague Dawley rats; assay: Plasma triglyceride and cholesterol lowering activity in hypercholesterolemic rat models; conditions: 1 mg/kg orally for 3 days; for HDL (%) ↑: increase; for Total Cholesterol (%) ↓ / Triglyceride (%) ↓ / LDL (%) ↓ / VLDL (%) ↓: reduction; for LDL (%) ↓: LDL calculated from total cholesterol; for LDL (%) ↓ / VLDL (%) ↓: HDL and triglyceride; for VLDL (%) ↓: VLDL calculated from total cholesterol
Experimental: Male Sprague Dawley rats (NIN stock) were bred in DRF animal house. Animals were maintained under 12 hour light and dark cycle at 25±1° C. Rats of 180 -200 gram body weight range were used for the experiment. Animals were made hypercholesterolemic by feeding 2% cholesterol and 1% sodium cholate mixed with standard laboratory chow [National Institute of Nutrition (NIN), Hyderabad, India] for 6 days. Throughout the experimental period the animals were maintained on the same diet (Petit, D., Bonnefis, M. T., Rey, C and Infante, R. Effects of ciprofibrate on liver lipids and lipoprotein synthesis in normo- and hyperlipidemic rats. Atherosclerosis. 1988. 74:215-225).
The test compounds were administered orally at a dose 0.1 to 30 mg/kg/day for 3 days. Control group was treated with vehicle alone (0.25% Carboxymethylcellulose; dose 10 ml/kg).
The blood samples were collected in fed state 1 hour after drug administration on 0 and 3 day of compound treatment. The blood was collected from the retro-orbital sinus through heparinised capillary in EDTA containing tubes. After centrifugation, plasma sample was separated for total cholesterol, HDL and triglyceride estimations. Measurement of plasma triglyceride, total cholesterol and HDL were done using commercial kits (Dr. Reddy's Laboratory, Diagnostic Division, India). LDL and VLDL cholesterol were calculated from the data obtained for total cholesterol, HDL and triglyceride. The reduction of various parameters examined are calculated according to the formula.
as §1
2. LDL and VLDL cholesterol levels were calculated according to the formula: [formula] [formula]

[5] = 3 mg/kg oral gavage daily for 6 days
[6] = 10 mg/kg oral gavage daily for 6 days

CCOC(Cc1ccc(OCCN2C(=O)COc3ccccc32)cc1)C(=O)O (racemic) [Example 41, 3-[4-[2-(3-Oxo-2H-1,4-benzoxazin-4-yl)ethoxy]phenyl]-2-ethoxypropanoic acid]
Reduction in Blood Glucose Level (%) [1, 5]: 53%
Triglyceride Lowering (%) [1, 5]: 27%
Triglyceride Lowering (%) ([2]; 10 mg/kg orally for 6 days): 54%

CCOC(Cc1ccc2cc(OCCN3CCSc4ccccc43)ccc2c1)C(=O)O (racemic) [Example 43, 3-[6-[2-(2,3-Dihydro-1,4-benzothiazin-4-yl)ethoxy]naphthyl]-2-ethoxypropanoic acid]
Triglyceride Lowering (%) ([2]; 3 mg/kg orally for 6 days): 49%

CCOC(Cc1ccc(OCC2CN(Cc3ccccc3)c3ccccc3O2)cc1)C(=O)[O-].[Na+] (stereo not shown) [Example 63, 3-[4-(4-Benzyl-3,4-dihydro-2H-1,4-benzoxazin-2-yl)methoxyphenyl]-2-ethoxypropanoic acid, sodium salt]
Triglyceride Lowering (%) ([2]; 3 mg/kg orally for 6 days): 57%

CCOC(Cc1ccc(OCCN2CCSc3ccccc32)cc1)C(=O)[O-].[Na+] (stereo not shown) [Example 30, 3-[4-[2-(2,3-Dihydro-1,4-benzothiazin-4-yl)ethoxy]phenyl]-2-ethoxypropanoic acid, sodium salt]
Body weight Reduction (%) [3]: 18%

CCCCOC(Cc1ccc(OCCN2CCOc3ccccc32)cc1)C(=O)[O-].[Na+] (stereo not shown) [Example 50, 3-[4-[2-(2,3-Dihydro-1,4-benzoxazin-4-yl)ethoxy]phenyl]-2-butoxypropanoic acid, sodium salt]
Reduction in Blood Glucose Level (%) [1, 5]: 45%
Triglyceride Lowering (%) [1, 5]: 23%

CCOC(Cc1ccc2cc(OCCN3CCSc4ccccc43)ccc2c1)C(=O)[O-].[Na+] (stereo not shown) [Example 44]
Reduction in Blood Glucose Level (%) [1, 6]: 47%
Triglyceride Lowering (%) [1, 6]: 74%
HDL (%) ↑ [4]: 46%
Total Cholesterol (%) ↓ [4]: 42%
Triglyceride (%) ↓ [4]: 50%
LDL (%) ↓ [4]: 44%
VLDL (%) ↓ [4]: 53%

CCOC(Cc1ccc(OCCN2CCOc3ccccc32)cc1)C(=O)[O-].[Na+] (stereo not shown) [Example 27, 3-[4-[2-(2,3-Dihydro-1,4-benzoxazin-4-yl)ethoxy]phenyl]-2-ethoxypropanoic acid, sodium salt]
HDL (%) ↑ [4]: 37%
Total Cholesterol (%) ↓ [4]: 57%
Triglyceride (%) ↓ [4]: 43%
LDL (%) ↓ [4]: 58%
VLDL (%) ↓ [4]: 79%
Body weight Reduction (%) [3]: 12%

CCOC(Cc1ccc(OCCN2CCOc3ccccc32)cc1)C(N)=O (racemic) [Example 33, 3-[4-[2-(2,3-Dihydro-1,4-benzoxazin-4-yl)ethoxy]phenyl]-2-ethoxypropanamide]
Triglyceride Lowering (%) ([2]; 3 mg/kg orally for 6 days): 55%
